In PubChem BioAssay (NCI):
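Growth conditions: 96-well plates. Treatment: test compound, 48 hours, 5 concentrations. Analysis: linear interpolation between bracketing concentrations; unreached endpoints set to highest concentration. GI50: concentration for 50% inhibition of growth. Definition used: TGI = concentration required for complete inhibition of growth.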

How the values were obtained:
Experiment in all cases: growth of human tumour cells (NCI), 48 h
786-0 renal = tested on: 786-0 renal
A498 renal = tested on: A498 renal
A549 NSCLC = tested on: A549 NSCLC
ACHN renal = tested on: ACHN renal
BT-549 breast = tested on: BT-549 breast
CAKI-1 renal = tested on: CAKI-1 renal
CCRF-CEM leukemia = tested on: CCRF-CEM leukemia
COLO 205 colon = tested on: COLO 205 colon
DU-145 prostate = tested on: DU-145 prostate
EKVX NSCLC = tested on: EKVX NSCLC
HCC-2998 colon = tested on: HCC-2998 colon
HCT-15 colon = tested on: HCT-15 colon
HL-60(TB) leukemia = tested on: HL-60(TB) leukemia
HOP-62 NSCLC = tested on: HOP-62 NSCLC
HOP-92 NSCLC = tested on: HOP-92 NSCLC
HS 578T breast = tested on: HS 578T breast
HT29 colon = tested on: HT29 colon
IGROV1 ovarian = tested on: IGROV1 ovarian
K-562 leukemia = tested on: K-562 leukemia
KM12 colon = tested on: KM12 colon
LOX IMVI melanoma = tested on: LOX IMVI melanoma
M14 melanoma = tested on: M14 melanoma
MALME-3M melanoma = tested on: MALME-3M melanoma
MCF7 breast = tested on: MCF7 breast
MDA-MB-231 breast = tested on: MDA-MB-231 breast
MDA-MB-435 = tested on: MDA-MB-435
MOLT-4 leukemia = tested on: MOLT-4 leukemia
NCI-H226 lung = tested on: NCI-H226 lung
NCI-H23 lung = tested on: NCI-H23 lung
NCI-H460 lung = tested on: NCI-H460 lung
NCI-H522 lung = tested on: NCI-H522 lung
NCI/ADR-RES ovarian = tested on: NCI/ADR-RES ovarian
OVCAR-3 ovarian = tested on: OVCAR-3 ovarian
OVCAR-4 ovarian = tested on: OVCAR-4 ovarian
OVCAR-5 ovarian = tested on: OVCAR-5 ovarian
OVCAR-8 ovarian = tested on: OVCAR-8 ovarian
PC-3 prostate = tested on: PC-3 prostate
RPMI-8226 leukemia = tested on: RPMI-8226 leukemia
SF-268 CNS = tested on: SF-268 CNS
SF-295 CNS = tested on: SF-295 CNS
SF-539 CNS = tested on: SF-539 CNS
SK-MEL-2 melanoma = tested on: SK-MEL-2 melanoma
SK-MEL-28 melanoma = tested on: SK-MEL-28 melanoma
SK-MEL-5 melanoma = tested on: SK-MEL-5 melanoma
SK-OV-3 ovarian = tested on: SK-OV-3 ovarian
SN12C renal = tested on: SN12C renal
SNB-19 CNS = tested on: SNB-19 CNS
SR leukemia = tested on: SR leukemia
SW-620 colon = tested on: SW-620 colon
T-47D breast = tested on: T-47D breast
TK-10 renal = tested on: TK-10 renal
U251 CNS = tested on: U251 CNS
UACC-257 melanoma = tested on: UACC-257 melanoma
UACC-62 melanoma = tested on: UACC-62 melanoma
UO-31 renal = tested on: UO-31 renal

Cc1ccc(S(=O)(=O)NCCCNc2nc(Nc3ccc(N4CCN(C)CC4)cc3)nc3ccsc23)cc1
GI50 (786-0 renal): 1.77 µM | TGI (786-0 renal): 3.42 µM | GI50 (A498 renal): 19.4 µM | TGI (A498 renal): 34.5 µM | GI50 (A549 NSCLC): 14.9 µM | TGI (A549 NSCLC): 31.5 µM | GI50 (ACHN renal): 12 µM | TGI (ACHN renal): 25.2 µM | GI50 (BT-549 breast): 3.56 µM | TGI (BT-549 breast): 16.4 µM | GI50 (CAKI-1 renal): 12.8 µM | TGI (CAKI-1 renal): 25.5 µM | GI50 (CCRF-CEM leukemia): 2.73 µM | TGI (CCRF-CEM leukemia): 22.9 µM | GI50 (COLO 205 colon): 13.1 µM | TGI (COLO 205 colon): 29.8 µM | GI50 (DU-145 prostate): 16.4 µM | TGI (DU-145 prostate): 40.6 µM | GI50 (EKVX NSCLC): 11.6 µM | TGI (EKVX NSCLC): 28.7 µM | GI50 (HCC-2998 colon): 5.34 µM | TGI (HCC-2998 colon): 17.8 µM | GI50 (HCT-15 colon): 2.07 µM | TGI (HCT-15 colon): 5.54 µM | GI50 (HL-60(TB) leukemia): 2.01 µM | TGI (HL-60(TB) leukemia): 5.18 µM | GI50 (HOP-62 NSCLC): 14.8 µM | TGI (HOP-62 NSCLC): 30.5 µM | GI50 (HOP-92 NSCLC): 1.94 µM | TGI (HOP-92 NSCLC): 11.6 µM | GI50 (HS 578T breast): 5.09 µM | TGI (HS 578T breast): 26.7 µM | GI50 (HT29 colon): 4.4 µM | TGI (HT29 colon): 18.4 µM | GI50 (IGROV1 ovarian): 7.35 µM | TGI (IGROV1 ovarian): 21.8 µM | GI50 (K-562 leukemia): 2.56 µM | TGI (K-562 leukemia): > 100 µM | GI50 (KM12 colon): 14.3 µM | TGI (KM12 colon): 47.9 µM | GI50 (LOX IMVI melanoma): 1.51 µM | TGI (LOX IMVI melanoma): 3.06 µM | GI50 (M14 melanoma): 1.6 µM | TGI (M14 melanoma): 3.13 µM | GI50 (MALME-3M melanoma): 1.79 µM | TGI (MALME-3M melanoma): 3.42 µM | GI50 (MCF7 breast): 3.52 µM | TGI (MCF7 breast): 13.8 µM | GI50 (MDA-MB-231 breast): 3.92 µM | TGI (MDA-MB-231 breast): 18.7 µM | GI50 (MDA-MB-435): 9.14 µM | TGI (MDA-MB-435): 21.3 µM | GI50 (MOLT-4 leukemia): 3.43 µM | TGI (MOLT-4 leukemia): 28.7 µM | GI50 (NCI-H226 lung): 8.46 µM | TGI (NCI-H226 lung): 21.8 µM | GI50 (NCI-H23 lung): 12.2 µM | TGI (NCI-H23 lung): 26.5 µM | GI50 (NCI-H460 lung): 13 µM | TGI (NCI-H460 lung): 27.8 µM | GI50 (NCI-H522 lung): 12.5 µM | TGI (NCI-H522 lung): 26.2 µM | GI50 (NCI/ADR-RES ovarian): 15.5 µM | TGI (NCI/ADR-RES ovarian): 41.9 µM | GI50 (OVCAR-3 ovarian): 10.2 µM | TGI (OVCAR-3 ovarian): 42.1 µM | GI50 (OVCAR-4 ovarian): 10.3 µM | TGI (OVCAR-4 ovarian): 44.2 µM | GI50 (OVCAR-5 ovarian): 11.9 µM | TGI (OVCAR-5 ovarian): 25.9 µM | GI50 (OVCAR-8 ovarian): 10.9 µM | TGI (OVCAR-8 ovarian): 29.7 µM | GI50 (PC-3 prostate): 5.55 µM | TGI (PC-3 prostate): 21.6 µM | GI50 (RPMI-8226 leukemia): 2.5 µM | TGI (RPMI-8226 leukemia): 8.04 µM | GI50 (SF-268 CNS): 9.87 µM | TGI (SF-268 CNS): 46 µM | GI50 (SF-295 CNS): 9.03 µM | TGI (SF-295 CNS): 21.6 µM | GI50 (SF-539 CNS): 2.16 µM | TGI (SF-539 CNS): 5.78 µM | GI50 (SK-MEL-2 melanoma): 15.1 µM | TGI (SK-MEL-2 melanoma): 29 µM | GI50 (SK-MEL-28 melanoma): 6.5 µM | TGI (SK-MEL-28 melanoma): 19.4 µM | GI50 (SK-MEL-5 melanoma): 12.9 µM | TGI (SK-MEL-5 melanoma): 25.6 µM | GI50 (SK-OV-3 ovarian): 27.1 µM | TGI (SK-OV-3 ovarian): 77.8 µM | GI50 (SN12C renal): 13.6 µM | TGI (SN12C renal): 28 µM | GI50 (SNB-19 CNS): 15.9 µM | TGI (SNB-19 CNS): 32.4 µM | GI50 (SR leukemia): 2.84 µM | TGI (SR leukemia): > 100 µM | GI50 (SW-620 colon): 12.5 µM | TGI (SW-620 colon): 28 µM | GI50 (T-47D breast): 13.3 µM | TGI (T-47D breast): 37.2 µM | GI50 (TK-10 renal): 17.7 µM | TGI (TK-10 renal): 40.3 µM | GI50 (U251 CNS): 3.83 µM | TGI (U251 CNS): 18.7 µM | GI50 (UACC-257 melanoma): 2.19 µM | TGI (UACC-257 melanoma): 5.83 µM | GI50 (UACC-62 melanoma): 11.5 µM | TGI (UACC-62 melanoma): 23.6 µM | GI50 (UO-31 renal): 7.94 µM | TGI (UO-31 renal): 23.8 µM
